Assay results from patent publication US8852876B2, “Label free biosensors and cells” (Corning Incorporated, priority 2008, dated 2014).
One block for each compound: values may come before it.

Assays:
[1] = tested on: EGF-induced response of quiescent A431 cells; experiment: Effect of compound pretreatment on EGF-induced DMR response; assay type: cell-based, human; conditions: read-out: IC50 for suppression of EGF-induced response (amplitude of N-DMR signal)
Method in brief: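 A431 cells were made quiescent by ≥16 h culture in no or ~0.1% FBS medium. After two HBSS/20 mM HEPES pH 7.4 buffer additions ≥15 min apart, compound was added and then stimulus. Real-time dynamic mass redistribution was tracked by resonant waveguide biosensor with angular interrogation.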

quiescent A431 cells [2] = experiment: GPCR agonist-induced DMR and EGFR transactivation; assay type: cell-based, human
Experimental: Both A431 and CHO-K1 cells were grown in Dulbecco's modified Eagle's medium (DMEM) supplemented with 10% fetal calf serum, 100 μg/ml penicillin, and 100 μg/ml streptomycin. For cell culture, certain numbers of cells (2×10^5 to 1×10^6), either A431 or CHO-K1, were suspended in […] medium were placed in each well of a 96 well Corning Epic Biosensor microplate, and were cultured at 37° C. in air/5% CO2 for certain time until the cell density reached ˜90% and above (unless specified). The resulted cells were termed as “profilerating” cells. The “quiescent” cells were obtained by culturing the profilerating cells of desired confluencies with a medium containing no or little (˜0.1% fetal bovine serum (FBS)) for at least 16 hours.
During the assays, the cells in 100 μl medium were subject to two 25 μl HBSS buffer containing 20 mM HEPES, pH 7.4, each separated by at least 15 minutes before 50 μl stimulus-containing solution was applied. During all these steps, a parallel angular interrogation system was used to monitor the real time kinetics of cellular responses. For compound effect studies, a modified protocol was used which starts with 50 μl medium, and subject to sequential treatment: 25 μl HBSS buffer twice (each separated by at least 15 minutes), 50 μl compound solution and finally 50 μl stimulus-containing solution.

quiescent A431 cells [3] = experiment: mβCD-induced response (cholesterol effluxing) on LID sensor; assay type: cell-based, human; conditions: 20 nM EGF or 1000 nM H7; pretreated at least 40 minutes
Description: The disclosed methods can be used to assay cholesterol transport and to, for example, screen for molecules that effect cholesterol transport, such as effluxing and uptake. […] This method is based on the measurement in real time of the effect of compounds on cholesterol effluxing. Depletion of cholesterol content on cell surface or intracellular pool results in the disappearance of microvilli located in the cell surface, resulting in the flatness of cells adherent on a surface. The flatness of cells leads to a positive DMR phase with increased signal. Based on this biological effect, we use reagents, as markers, that can either extract cholesterol from the cell surface (e.g., methyl-beta-cyclodextrin (mβCD), or high density lipoproteins (HDLs)), or bind or sequester cholesterol on the cell surface (e.g., saponin at relatively low concentrations). The changes obtained using optical biosensors can be used as an indicator of modulators that interfere with the cholesterol effuxing. FIG. 27 provides a schematic of a cholesterol pathway.

[4] = tested on: endogenous GPCRs in A431 cells; experiment: DMR optical biosensor profiling of GPCR agonists; assay type: cell-based, human; conditions: quiescent A431; first class = Gq-type, second = Gs-type, third = Gi-type, fourth = no significant DMR
Experimental: Human epidermoid carcinoma A431 cells (American Type Cell Culture) were grown in Dulbecco's modified Eagle's medium (DMEM) supplemented with 10% fetal bovine serum (FBS), 4.5 g/liter glucose, 2 mM glutamine, and antibiotics. ˜3-7.5×10^4 cells at passage 3 to 5 suspended in 200 μl the DMEM medium containing 10% FBS were placed in each well of a 96 well microplate. Similarly ˜1-2×10^4 cells in 50 μl the growth medium were placed in each well of a 384 well microplate. After cell seeding, the cells were cultured at 37° C. under air/5% CO2 until ˜95% confluency was reached (˜2-4 days).
A Corning® Epic™ angular interrogation system with transverse magnetic or p-polarized TM0 mode was used for all studies. Several extra actions were taken to minimize the unwanted effects. First, to minimize the bulk index changes when a compound solution is introduced, 1×HBSS buffer without any probenecid was used to dilute all the compounds, whereas the DMEM buffer only was used to starve the cells. Secondly, to facilitate the cell responses as well as to rapidly reach a steady state when the sensor plates having cells were placed in the system at room temperature, the cells were pre-starved with the DMEM buffer without any FBS for a prolonged period of time (typically 20±2 hours), and the quiescent cells were directly used for assays without any wash.
For kinetics measurements, the cultured cells (˜95% confluency) were starved for about 20 hours with DMEM alone at 37° C. under air/5% CO2. Afterwards, the sensor microplate containing cells was placed into the optical system, and the cell responses were recorded before and after addition of a solution at room temperature. […] All studies were carried out at room temperature with the lid of the microplate on except for a short period of time (˜seconds) when the solution was introduced, in order to minimize the effect of temperature fluctuation and evaporative cooling. The unit of the responses indicated herein was a change in pixel of the central position of the resonant band of each sensor as imaged by a CCD camera; 1 unit equals to ˜5.82×10^−4 refractive index changes, based on an experimental normalization protocol, which uses the concentration-dependent responses of both glycerol and dimethyl sulfoxide.
The panel of agonists were used individually to stimulate quiescent A431 cells. The dose-dependent and kinetic responses were recorded and analyzed. In a typical kinetic measurement, the angular shift of resonant lights of each sensor induced by an agonist is monitored in real time and plotted as a function of time. An increased signal (P-DMR) means an increase in the amount of bio-molecules within the sensing volume (˜120 nm); conversely, a decreased signal (N-DMR) means a decrease in the amount of bio-molecules within the sensing volume. The sensing volume, also known as penetration depth, is an intrinsic property of the coupled light within the waveguide film, which creates an evanescent wave extending into the cell layer and the medium.

A431 cells = experiment: Cell adhesion and spreading on RWG biosensor; assay type: cell-based, human; conditions: 100 nM; 5% FBS; room temperature
Description: The adhesion and spreading of cells at surfaces were well studied using optical imaging techniques, as well as optical biosensors such as SPR and RWG. […] Subsequently, attached cells undergo morphological changes known as spreading—a process that the cells increase their area in contact with the surface. Both attachment and spreading are dependent on the nature of the surface and of the medium in which the cells are suspended. Since cell adhesion and spreading obviously leads to both vertical and horizontal mass redistribution within the sensing volume, we first characterized the adhesion and spreading of A431 cells in 5% FBS in the absence and presence of vincristine. Vincristine is a plant alkaoid that inhibits microtubule assembly by binding to tubulin.
We studied the adhesion and spreading of A431 cells in 5% FBS in the absence and presence of vincristine at room temperature (25° C.). […] Following the addition of cell solution, there is an immediate and rapid increased signal, which is probably resulted from three events: the increased bulk index from the addition of the cell solution, the immobilization of serum proteins onto the sensor surface, and the sedimentation of cells and subsequent contact of cells with the surface. Afterwards, a prolonged increased signal occurred, indicating the slow process of cell spreading. Ultimately a saturated level was reached. […]

[5] = tested on: protease activated receptors PAR1 and PAR2; experiment: Fluo-3 Ca2+ mobilization assay with PAR agonists; assay type: cell-based, human; conditions: for Concentration required to induce a maximal response: [Ca2+]i; for Effect of preceding stimulation on trypsin-induced [Ca2+]i elevation: 200 nM trypsin; for Maximal [Ca2+]i elevation / EC50: quiescent A431, Fluo-3; for EC50: read-out: EC50 of [Ca2+]i increase
Experimental: A431 at passage 3 to 5 were grown in Costar™ 96 well clear cell culture microplates until ˜95% confluency, washed twice and starved overnight with the DMEM only, washed with 1×HBSS (1× regular Hank's balanced salt solution, 20 mM HEPES buffer, pH 7.0) in the presence of 2.5 mM probenicid, and labeled in the same buffer containing 4 μM Fluo-3 for 1 hour at room temperature. The cells were then washed twice with buffer, maintained with 100 μl 1×HBSS containing 2.5 mM probenicid. The assay was initiated by transferring 50 μl PAR agonist solution to the cell plate, and calcium signal was recorded over 6 minutes with a 6 sec interval using HTS7000 BioAssay Reader (PerkinElmer Life Science, Boston, Mass.). The assays were carried out at room temperature in order to allow direct comparison with optical sensing data.

[6] = tested on: protease activated receptors PAR1 and PAR2; assay type: cell-based, human
Method in brief: (§1)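 A431 cells at passage 3-5 grown in DMEM/10% FBS at 37° C, 5% CO2 to ~95% confluency (~2-4 days). Compounds and PAR agonists prepared in 1×HBSS to match the refractive index of the cell medium for dynamic mass redistribution (DMR) read-out.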

[7] = target: T1, protease activated receptors PAR1 and PAR2 (Homo sapiens, UniProt P55085); assay type: cell-based
T1 construct: A431 cells which endogenously express PAR1 and PAR2; endogenous in cells; host or cells: A431
T1 sequence (P55085 26-397): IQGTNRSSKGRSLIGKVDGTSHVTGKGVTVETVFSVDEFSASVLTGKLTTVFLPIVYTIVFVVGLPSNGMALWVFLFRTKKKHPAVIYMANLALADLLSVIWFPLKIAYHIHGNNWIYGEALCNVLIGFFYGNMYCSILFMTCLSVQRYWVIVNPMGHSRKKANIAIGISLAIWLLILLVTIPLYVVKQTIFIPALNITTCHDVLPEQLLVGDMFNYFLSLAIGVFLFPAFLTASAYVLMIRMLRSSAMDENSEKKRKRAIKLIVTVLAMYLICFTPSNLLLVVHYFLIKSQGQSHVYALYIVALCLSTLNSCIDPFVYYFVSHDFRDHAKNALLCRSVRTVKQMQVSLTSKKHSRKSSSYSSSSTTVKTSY
Method in brief: as §1

[8] = target: T2, protease activated receptors PAR1 and PAR2 (Homo sapiens, UniProt P25116); assay type: cell-based
T2 construct: A431 cells which endogenously express PAR1 and PAR2; endogenous in cells; host or cells: A431
T2 sequence (P25116 22-425): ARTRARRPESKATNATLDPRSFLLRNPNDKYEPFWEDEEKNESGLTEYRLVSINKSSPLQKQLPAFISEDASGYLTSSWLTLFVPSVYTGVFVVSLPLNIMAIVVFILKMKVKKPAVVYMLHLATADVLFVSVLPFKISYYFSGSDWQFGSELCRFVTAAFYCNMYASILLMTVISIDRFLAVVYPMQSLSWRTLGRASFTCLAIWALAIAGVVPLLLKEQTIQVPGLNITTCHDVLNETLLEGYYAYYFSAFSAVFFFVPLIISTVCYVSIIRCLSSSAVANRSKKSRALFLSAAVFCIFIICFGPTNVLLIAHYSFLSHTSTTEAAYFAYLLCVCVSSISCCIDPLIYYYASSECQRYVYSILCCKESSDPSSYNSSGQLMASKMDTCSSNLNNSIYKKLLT
Method in brief: as §1

[9] = tested on: actin filaments in A431 cells; experiment: Texas Red-phalloidin fluorescence imaging; assay type: cell-based, human; conditions: 100 nM trypsin or 40 unit/ml thrombin; ~95% confluency
Experimental: Cells were grown on Corning® Epic™ 96 well biosensor microplates, starved for overnight with serum-free DMEM medium, chased with either trypsin or thrombin for certain time, fixed with 4% paraformaldehyde, permeabilized in phosphate-buffered saline (PBS) containing 0.2% Triton, and blocked with 1% bovine serum albumin (BSA). Afterwards, cells were incubated with 0.5 μM Texas Red-labeled phalloidin for 1 h at room temperature, and washed. After final washes and mounting, cells were examined with a 40× objective, equipped in a Zeiss Axioplan fluorescence microscope.

Compound: COc1cc2ncnc(Nc3cccc(Cl)c3)c2cc1OC [AG1478, tyrphostin AG1478]
IC50 [1]: ~0.194 µM | Effect of pretreatment on bradykinin-induced response (quiescent A431 cells [2]; AG1478 10 μM): can only partially attenuate the response | Effect of pretreatment on carbachol- and clonidine-induced response (quiescent A431 cells [2]; AG1478 10 μM): totally abolished the N-DMR phase, and significantly reduced the kinetics of the P-DMR phase

Compound: CC1CNCCN1S(=O)(=O)c1cccc2cnccc12 (stereo not drawn) [H7]
Effect of pretreatment on mβCD-induced response (quiescent A431 cells [3]): led to the suppression of the mβCD-induced response

Compound: Clc1cccc(Cl)c1N=C1NCCN1 [clonidine]
Class of optical signature (DMR) induced by agonist [4]: did not exhibited any significant DMR signals | GPCR agonist-induced DMR response curve (quiescent A431 cells [2]; bradykinin 100 nM, carbachol 10 μM, clonidine 1 μM): responses with almost identical features as those induced by low concentrations (2-8 nM) of EGF

Compound: CC[C@]1(O)C[C@H]2CN(CCc3c([nH]c4ccccc34)[C@@](C(=O)OC)(c3cc4c(cc3OC)N(C=O)[C@H]3[C@@](O)(C(=O)OC)[C@H](OC(C)=O)[C@]5(CC)C=CCN6CC[C@]43[C@@H]65)C2)C1 [vincristine]
Effect on cell adhesion and spreading signatures (A431 cells): suppressed not only both the initial and total responses, but also reduced the kinetics of cell spreading | Reduction of total change in incident angle vs absence of compound (A431 cells): about 20%

Compound: SLIGLR [SLIGLR-amide, PAR2-AP]
Concentration required to induce a maximal response [5]: 20 µM | Effect of preceding stimulation on trypsin-induced [Ca2+]i elevation ([5]; interval 6 min): significantly attenuated but not completely eliminates the trypsin-induced [Ca^2+]i elevation | Maximal [Ca2+]i elevation [5]: 64±3.7% | EC50 [5]: 2.5 ± 0.3 µM | Effect of preceding stimulation on trypsin-induced DMR signal ([6]; interval about 1 hour): significantly suppresses but not completely eliminates the trypsin-induced DMR signal | DMR signal after preceding stimulation with thrombin [7]: induced the DMR signal similar to that obtained without the preceding stimulation | Class of optical signature (DMR) induced by agonist [4]: first class of optical signatures

More lines, main results first:

Concentration required to induce a maximal response [5]: 20 µM | Maximal [Ca2+]i elevation [5]: 52±6.3% | EC50 [5]: 3.8 ± 0.4 µM | [Ca2+]i elevation after preceding stimulation with thrombin ([5]; thrombin 40 unit/ml first, interval 6 min): 48.5±3.8%
Compound: SLIGKV [SLIGKV-amide, PAR2-AP]
Effect of preceding stimulation on trypsin-induced [Ca2+]i elevation ([5]; interval 6 min): significantly attenuated but not completely eliminates the trypsin-induced [Ca^2+]i elevation | Effect of preceding stimulation on trypsin-induced DMR signal ([6]; interval about 1 hour): significantly suppresses but not completely eliminates the trypsin-induced DMR signal | DMR signal after preceding stimulation with thrombin [7]: induced the DMR signal similar to that obtained without the preceding stimulation | Class of optical signature (DMR) induced by agonist [4]: first class of optical signatures

[Ca2+]i elevation mediated by 200 nM trypsin after pretreatment ([5]; pretreatment with 80 μM, n=5): 48.3±4.5%
Compound: YFLLRNP [PAR1 specific partial agonist]
[Ca2+]i elevation by compound alone ([5]; concentrations up to 160 μM): did not induce any significantly elevation of [Ca^2+]i | Effect of pretreatment on trypsin-mediated DMR signal ([6]; 100 or 200 nM trypsin, modulators 10 μM): only partially attenuated both SFFLR-amide and trypsin-mediated DMR | Effect of pretreatment on SFFLR-amide-mediated DMR ([6]; SFFLR-amide 20 μM, highest dose examined): only partially attenuated both SFFLR-amide and trypsin-mediated DMR | Effect of pretreatment on PAR2-AP GLIGKV-mediated DMR signal ([7]; SLIGKV-amide 20 μM): no obvious effect on the PAR2-AP GLIGKV-mediated DMR signal | DMR signal stimulated by compound alone [8]: only at high doses stimulated significant DMR signals

Concentration required to induce a maximal response [5]: 0.4 µM | Maximal [Ca2+]i elevation [5]: 100±6.3% | EC50 [5]: 0.0457 ± 0.0058 µM | Effect of preceding stimulation on [Ca2+]i elevation by subsequent PAR agonists ([5]; then 40 unit/ml thrombin, 20 μM SFFLR-amide, GLIGKV-amide, GLIGLR-amide or 200 nM trypsin, interval 6 min): induced almost no [Ca^2+]i elevation | Maximal [Ca2+]i elevation relative to thrombin ([5]; trypsin vs thrombin): approximately 2 fold
Compound: trypsin
Effect of preceding stimulation on DMR signal induced by PAR-APs ([6]; SFFLR-amide, GLIGKV-amide, GLIGLR-amide, interval about 1 hour): significantly suppressed the DMR signal induced by either of three PAR-APs | Effect of preceding stimulation on DMR signal induced by trypsin or thrombin ([6]; interval about 1 hour): completely eliminated the DMR signal induced by either trypsin (data not shown) or thrombin | Effect of pretreatment on DMR mediated by bradykinin ([6]; interval about 1 hour): little effect on the DMR mediated by bradykinin | Class of optical signature (DMR) induced by agonist [4]: first class of optical signatures | Reorganization of actin filaments [9]: triggered significant cytoskeletal reorganization after about 10 min
